Experimental data: patent US12384789B2, “Compounds for treating Huntington's disease” (PTC Therapeutics, Inc., priority 2017, dated 2025)

system: Endogenous Huntingtin Protein; experiment: Endogenous Huntingtin Protein Assay (Meso Scale Discovery ELISA-based electrochemiluminescence); type: cell-based; conditions: MSD electrochemiluminescence, Table 1
How it was run: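 MSD electrochemiluminescence sandwich ELISA: MW1 (expanded polyQ) or MAB2166 capture antibody at 1 μg/mL, samples incubated overnight at 4° C. Detection with rabbit monoclonal #5656S then SULFO-TAG anti-rabbit antibody, each 0.25 μg/mL for 1 h at room temperature.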

Cc1cn2nc(-c3cc(F)c4cc(C5CCNCC5)nnc4c3)cc(CO)c2n1 [Compound 107, {6-[5-fluoro-3-(piperidin-4-yl)cinnolin-7-yl]-2-methylimidazo[1,2-b]pyridazin-8-yl}methanol] and Cc1cn2nc(-c3cc(F)c4cc(C5CCNCC5)nnc4c3)cc(C#N)c2n1 [Compound 108, 6-[5-fluoro-3-(piperidin-4-yl)cinnolin-7-yl]-2-methylimidazo[1,2-b]pyridazine-8-carbonitrile] cannot be ordered by IC50: at most 100 nM for the first, at most 100 nM for the second.

Compared with Cn1cc2c(F)c(-c3cc(F)c4cc(C5CCNCC5)nnc4c3)ccc2n1 [Compound 109, 5-fluoro-7-(4-fluoro-2-methyl-2H-indazol-5-yl)-3-(piperidin-4-yl)cinnoline], Cc1cn2cc(-c3cc(F)c4cc(C5CCNCC5)nnc4c3)nc2c(C)n1 [Compound 116, 7-(6,8-dimethylimidazo[1,2-a]pyrazin-2-yl)-5-fluoro-3-(piperidin-4-yl)cinnoline] is lower in IC50: 500 to 1000 nM for the first, 100 to 500 nM for the second. The second is the more potent here.

CCN1CCC(c2cnc3cc(-c4cc(C)c5nc(C)cn5n4)cc(F)c3n2)CC1 [Compound 110, 6-(2,8-dimethylimidazo[1,2-b]pyridazin-6-yl)-2-(1-ethylpiperidin-4-yl)-8-fluoroquinoxaline] and CCN1CCC(c2cc3c(F)cc(-c4cc(C#N)c5nc(C)cn5n4)cc3nn2)CC1 [Compound 114, 6-[3-(1-ethylpiperidin-4-yl)-5-fluorocinnolin-7-yl]-2-methylimidazo[1,2-b]pyridazine-8-carbonitrile] cannot be ordered by IC50: at most 100 nM for the first, at most 100 nM for the second.

CCN1CCC(c2cc3c(F)cc(-c4cc(OC)c5nc(C)cn5n4)cc3nn2)CC1 [Compound 111, 3-(1-ethylpiperidin-4-yl)-5-fluoro-7-(8-methoxy-2-methylimidazo[1,2-b]pyridazin-6-yl)cinnoline] and CCc1cc(-c2cc(F)c3cc(C4CCN(CC)CC4)nnc3c2)nn2cc(C)nc12 [Compound 121, 7-(8-ethyl-2-methylimidazo[1,2-b]pyridazin-6-yl)-3-(1-ethylpiperidin-4-yl)-5-fluorocinnoline] cannot be ordered by IC50: at most 100 nM for the first, at most 100 nM for the second.

Cc1cn2nc(-c3cc(F)c4cc(C5CCNCC5)nnc4c3)cc(C3CC3)c2n1 [Compound 112, 7-(8-cyclopropyl-2-methylimidazo[1,2-b]pyridazin-6-yl)-5-fluoro-3-(piperidin-4-yl)cinnoline] and CCN1CCC(c2cc3c(F)cc(-c4cc(C5CC5)c5nc(C)cn5n4)cc3nn2)CC1 [Compound 115, 7-(8-cyclopropyl-2-methylimidazo[1,2-b]pyridazin-6-yl)-3-(1-ethylpiperidin-4-yl)-5-fluorocinnoline] cannot be ordered by IC50: at most 100 nM for the first, at most 100 nM for the second.

CCN1CCC(c2cc3c(F)cc(-c4cc(CO)c5nc(C)cn5n4)cc3nn2)CC1 [Compound 113, {6-[3-(1-ethylpiperidin-4-yl)-5-fluorocinnolin-7-yl]-2-methylimidazo[1,2-b]pyridazin-8-yl}methanol] and CCc1cc(-c2cc(F)c3cc(C4CCN(CCO)CC4)nnc3c2)nn2cc(C)nc12 [Compound 123, 2-{4-[7-(8-ethyl-2-methylimidazo[1,2-b]pyridazin-6-yl)-5-fluorocinnolin-3-yl]piperidin-1-yl}ethan-1-ol] cannot be ordered by IC50: at most 100 nM for the first, at most 100 nM for the second.

Cc1cn2cc(-c3cc4c(F)cc(C5=CCNCC5)cc4nn3)cc(F)c2n1 [Compound 117, 5-fluoro-3-(8-fluoro-2-methylimidazo[1,2-a]pyridin-6-yl)-7-(1,2,3,6-tetrahydropyridin-4-yl)cinnoline] and Cn1cc2cc(-c3cc4c(F)cc(C5=CCNCC5)cc4nn3)cc(F)c2n1 [Compound 134, 5-fluoro-3-(7-fluoro-2-methyl-2H-indazol-5-yl)-7-(1,2,3,6-tetrahydropyridin-4-yl)cinnoline] cannot be ordered by IC50: at most 100 nM for the first, at most 100 nM for the second.

Cc1nc2c(C)cc(-c3cc(F)c4cc(C5CCNCC5)nnc4c3)cc2s1 [Compound 118, 7-(2,4-dimethyl-1,3-benzothiazol-6-yl)-5-fluoro-3-(piperidin-4-yl)cinnoline] and Cc1nc2c(C)cc(-c3cc(F)c4cc(C5CCNCC5)nnc4c3)nc2s1 [Compound 133, 7-(2,7-dimethyl[1,3]thiazolo[5,4-b]pyridin-5-yl)-5-fluoro-3-(piperidin-4-yl)cinnoline] cannot be ordered by IC50: 100 to 500 nM for the first, at most 100 nM for the second.

First: CCN1CCC(c2cc3c(F)cc(-c4cn5cc(C)nc(C)c5n4)cc3nn2)CC1 [Compound 119, 7-(6,8-dimethylimidazo[1,2-a]pyrazin-2-yl)-3-(1-ethylpiperidin-4-yl)-5-fluorocinnoline]
Second: CCN1CCC(c2cc3c(F)cc(-c4cc(C)c5nc(C)sc5n4)cc3nn2)CC1 [Compound 135, 7-(2,7-dimethyl[1,3]thiazolo[5,4-b]pyridin-5-yl)-3-(1-ethylpiperidin-4-yl)-5-fluorocinnoline]
The IC50 of the first is higher: 500 to 1000 nM for the first, at most 100 nM for the second. The second is the more potent here.

First: CCN1CCC(c2cc3c(F)cc(-c4cc(C)c5nc(C)sc5c4)cc3nn2)CC1 [Compound 120, 7-(2,4-dimethyl-1,3-benzothiazol-6-yl)-3-(1-ethylpiperidin-4-yl)-5-fluorocinnoline]
Second: CCN1CCC(c2cc3c(F)cc(-c4cc(C)c5nc(C)[nH]c5n4)cc3nn2)CC1 [Compound 132, 7-(2,7-dimethyl-3H-imidazo[4,5-b]pyridin-5-yl)-3-(1-ethylpiperidin-4-yl)-5-fluorocinnoline]
The IC50 of the first is higher: 1000 to 3000 nM for the first, at most 100 nM for the second. The second is the more potent here.

CCc1cc(-c2cc(F)c3cc(C4CCN(C)CC4)nnc3c2)nn2cc(C)nc12 [Compound 122, 7-(8-ethyl-2-methylimidazo[1,2-b]pyridazin-6-yl)-5-fluoro-3-(1-methylpiperidin-4-yl)cinnoline] and Cc1cn2nc(-c3cc(F)c4cc(C5CCN(CCN(C)C)CC5)nnc4c3)cc(C)c2n1 [Compound 127, 2-{4-[7-(2,8-dimethylimidazo[1,2-b]pyridazin-6-yl)-5-fluorocinnolin-3-yl]piperidin-1-yl}-N,N-dimethylethan-1-amine] cannot be ordered by IC50: at most 100 nM for the first, at most 100 nM for the second.

Cc1cn2nc(-c3cc(F)c4cc(C5C[C@@H](C)N(C)[C@H](C)C5)nnc4c3)cc(C)c2n1 (stereo partly drawn) [Compound 124, 7-(2,8-dimethylimidazo[1,2-b]pyridazin-6-yl)-5-fluoro-3-[(25,6S)-1,2,6-trimethylpiperidin-4-yl]cinnoline] and CCN1[C@H](C)CC(c2cc3c(F)cc(-c4cc(C)c5nc(C)cn5n4)cc3nn2)C[C@H]1C (stereo partly drawn) [Compound 125, 7-(2,8-dimethylimidazo[1,2-b]pyridazin-6-yl)-3-[(2R,6R)-1-ethyl-2,6-dimethylpiperidin-4-yl]-5-fluorocinnoline] cannot be ordered by IC50: at most 100 nM for the first, at most 100 nM for the second.

Cc1nc2c(C)cc(-c3cc(F)c4cc(C5CCNCC5)nnc4c3)nc2[nH]1 [Compound 126, 7-(2,7-dimethyl-3H-imidazo[4,5-b]pyridin-5-yl)-5-fluoro-3-(piperidin-4-yl)cinnoline] and Cc1cc2oc(-c3cc(F)c4cc(C5CCNCC5)nnc4c3)nc2c(C)n1 [Compound 137, 7-(4,6-dimethyl[1,3]oxazolo[4,5-c]pyridin-2-yl)-5-fluoro-3-(piperidin-4-yl)cinnoline] cannot be ordered by IC50: at most 100 nM for the first, at most 100 nM for the second.

Cc1cn2cc(-c3cc4c(F)cc(C5CCNCC5)cc4nn3)cc(F)c2n1 [Compound 128, 5-fluoro-3-(8-fluoro-2-methylimidazo[1,2-a]pyridin-6-yl)-7-(piperidin-4-yl)cinnoline] and Cc1cn2nc(-c3cc(F)c4cc(C5CCCNCC5)nnc4c3)cc(C)c2n1 (stereo not shown) [Compound 129, 3-(azepan-4-yl)-7-(2,8-dimethylimidazo[1,2-b]pyridazin-6-yl)-5-fluorocinnoline] cannot be ordered by IC50: at most 100 nM for the first, at most 100 nM for the second.

CC[C@H]1CC(c2cc3c(F)cc(-c4cc(C)c5nc(C)cn5n4)cc3nn2)C[C@H](CC)N1 (stereo partly drawn) [Compound 130, 3-[(2S,6S)-2,6-diethylpiperidin-4-yl]-7-(2,8-dimethylimidazo[1,2-b]pyridazin-6-yl)-5-fluorocinnoline] and CC[C@H]1CC(c2cc3c(F)cc(-c4cc(C)c5nc(C)cn5n4)cc3nn2)C[C@H](CC)N1C (stereo partly drawn) [Compound 131, 3-[(2S,6S)-2,6-diethyl-1-methylpiperidin-4-yl]-7-(2,8-dimethylimidazo[1,2-b]pyridazin-6-yl)-5-fluorocinnoline] cannot be ordered by IC50: at most 100 nM for the first, at most 100 nM for the second.

CCN1CCC(c2cc3c(F)cc(-c4nc5c(C)nc(C)cc5o4)cc3nn2)CC1 [Compound 136, 7-(4,6-dimethyl[1,3]oxazolo[4,5-c]pyridin-2-yl)-3-(1-ethylpiperidin-4-yl)-5-fluorocinnoline] and Cc1cn2nc(-c3cc(F)c4cc(C5CCNC5)nnc4c3)cc(C)c2n1 (stereo not shown) [Compound 143, 7-(2,8-dimethylimidazo[1,2-b]pyridazin-6-yl)-5-fluoro-3-(pyrrolidin-3-yl)cinnoline] cannot be ordered by IC50: at most 100 nM for the first, at most 100 nM for the second.

Cc1cn2nc(-c3cc(F)c4cc(C5CCNCC5)nnc4c3)cc(OCCN(C)C)c2n1 [Compound 138, 2-({6-[5-fluoro-3-(piperidin-4-yl)cinnolin-7-yl]-2-methylimidazo[1,2-b]pyridazin-8-yl}oxy)-N,N-dimethylethan-1-amine] and Cc1cn2nc(-c3cc(F)c4cc(C5CCNCC5)nnc4c3)cc(OCCCN(C)C)c2n1 [Compound 139, 3-({6-[5-fluoro-3-(piperidin-4-yl)cinnolin-7-yl]-2-methylimidazo[1,2-b]pyridazin-8-yl}oxy)-N,N-dimethylpropan-1-amine] cannot be ordered by IC50: 100 to 500 nM for the first, at most 100 nM for the second.

Cc1cn2nc(-c3cc(F)c4cc(C5CCNCC5)nnc4c3)cc(OCCn3cccn3)c2n1 [Compound 140, 5-fluoro-7-{2-methyl-8-[2-(1H-pyrazol-1-yl)ethoxy]imidazo[1,2-b]pyridazin-6-yl}-3-(piperidin-4-yl)cinnoline] and Cc1cn2nc(-c3cc(F)c4cc(C5CCNCC5)nnc4c3)cc(OCCCn3cccn3)c2n1 [Compound 141, 5-fluoro-7-{2-methyl-8-[3-(1H-pyrazol-1-yl)propoxy]imidazo[1,2-b]pyridazin-6-yl}-3-(piperidin-4-yl)cinnoline] cannot be ordered by IC50: at most 100 nM for the first, at most 100 nM for the second.

For Cc1cn2nc(-c3cc(F)c4cc(C5CCNCC5)nnc4c3)cc(OCCCn3ccnc3)c2n1 [Compound 142, 5-fluoro-7-{8-[3-(1H-imidazol-1-yl)propoxy]-2-methylimidazo[1,2-b]pyridazin-6-yl}-3-(piperidin-4-yl)cinnoline], the IC50 was 100 to 500 nM.
